{"source": "paper PMC2990605", "about": "(British Journal of Cancer, 2010)", "experiment": "Adverse events (CTCAEv3.0), worst grade per patient regardless of relation, and laboratory parameters", "format": "in vivo", "conditions": "human, in vivo", "description": "Toxicity was evaluated according to common toxicity criteria for adverse events (CTCAEv3.0). The MTD was defined as the dose level(s) at which at least two out of six patients developed DLT.\nToxicity assessment, haematology and clinical biochemistry were performed at baseline and weekly during the study. Physical and ECOG performance status were recorded at baseline and before the next cycle.", "data": [{"smiles": "CC(C)C[C@@H](C(=O)N[C@H](C(=O)OC1CCCC1)c1ccccc1)[C@H](O)C(=O)NO", "note": "[tosedostat]", "values": [{"measurement": "Pollakiuria, patients with events, %", "result": 5, "unit": "%"}, {"measurement": "Pruritus, CTCAE grade 1, patients", "result": 5}, {"measurement": "Pruritus, CTCAE grade 2, patients", "result": 0}, {"measurement": "Pruritus, CTCAE grade 3, patients", "result": 1}, {"measurement": "Pruritus, CTCAE grade 4, patients", "result": 0}, {"measurement": "Pruritus, patients with events, %", "result": 27, "unit": "%"}, {"measurement": "Pulmonary embolism, CTCAE grade 1, patients", "result": 0}, {"measurement": "Pulmonary embolism, CTCAE grade 2, patients", "result": 0}, {"measurement": "Pulmonary embolism, CTCAE grade 4, patients", "result": 0}, {"measurement": "Pyrexia, CTCAE grade 1, patients", "result": 4}, {"measurement": "Pyrexia, CTCAE grade 2, patients", "result": 2}, {"measurement": "Pyrexia, CTCAE grade 3, patients", "result": 0}, {"measurement": "Pyrexia, CTCAE grade 4, patients", "result": 0}, {"measurement": "Pyrexia, patients with events, %", "result": 27, "unit": "%"}, {"measurement": "Rash, CTCAE grade 1, patients", "result": 9}, {"measurement": "Rash, CTCAE grade 2, patients", "result": 1}, {"measurement": "Rash, CTCAE grade 3, patients", "result": 2}, {"measurement": "Rash, CTCAE grade 4, patients", "result": 0}, {"measurement": "Rash, patients with events, %", "result": 55, "unit": "%"}, {"measurement": "Renal and urinary disorders, patients with events, %", "result": 23, "unit": "%"}, {"measurement": "Respiratory, thoracic and mediastinal disorders, patients with events, %", "result": 73, "unit": "%"}, {"measurement": "SAEs considered disease-related", "result": 13}, {"measurement": "SAEs reported, total number", "result": 19}, {"measurement": "Skin and subcutaneous tissue disorders, patients with events, %", "result": 100, "unit": "%"}, {"measurement": "Spinal cord compression, CTCAE grade 1, patients", "result": 0}, {"measurement": "Spinal cord compression, CTCAE grade 2, patients", "result": 0}, {"measurement": "Spinal cord compression, CTCAE grade 3, patients", "result": 1}, {"measurement": "Spinal cord compression, CTCAE grade 4, patients", "result": 0}, {"measurement": "Spinal cord compression, patients with events, %", "result": 5, "unit": "%"}, {"measurement": "Tumour pain, CTCAE grade 1, patients", "result": 0}, {"measurement": "Tumour pain, CTCAE grade 2, patients", "result": 1}, {"measurement": "Tumour pain, CTCAE grade 3, patients", "result": 2}, {"measurement": "Tumour pain, CTCAE grade 4, patients", "result": 0}, {"measurement": "Tumour pain, patients with events, %", "result": 14, "unit": "%"}, {"measurement": "Urinary tract infection, CTCAE grade 1, patients", "result": 0}, {"measurement": "Urinary tract infection, CTCAE grade 2, patients", "result": 1}, {"measurement": "Urinary tract infection, CTCAE grade 3, patients", "result": 1}, {"measurement": "Urinary tract infection, CTCAE grade 4, patients", "result": 0}, {"measurement": "Urinary tract infection, patients with events, %", "result": 9, "unit": "%"}, {"measurement": "Vomiting, CTCAE grade 1, patients", "result": 3}, {"measurement": "Vomiting, CTCAE grade 2, patients", "result": 2}, {"measurement": "Vomiting, CTCAE grade 3, patients", "result": 0}, {"measurement": "Vomiting, CTCAE grade 4, patients", "result": 0}, {"measurement": "Vomiting, patients with events, %", "result": 23, "unit": "%"}, {"measurement": "drug-related adverse event: alopecia", "result": 95, "unit": "%"}, {"measurement": "drug-related adverse event: fatigue", "result": 95, "unit": "%"}, {"measurement": "drug-related adverse event: peripheral sensory neuropathy", "result": 59, "unit": "%"}, {"measurement": "drug-related adverse event: rash", "result": 55, "unit": "%"}, {"measurement": "incidence and severity of neutropenia/leukopenia, anaemia, myalgia and nausea/vomiting", "result": "not increased relative to paclitaxel alone"}, {"measurement": "nadir of median haemoglobin, WBC, neutrophils and lymphocytes in each cycle", "result": 15, "unit": "days"}, {"measurement": "nadir of median platelets in each cycle", "result": 8, "unit": "days"}, {"measurement": "patients with SAEs", "result": 12}, {"measurement": "γ-glutamyltransferase increased, CTCAE grade 1, patients", "result": 0}, {"measurement": "γ-glutamyltransferase increased, CTCAE grade 2, patients", "result": 1}, {"measurement": "γ-glutamyltransferase increased, CTCAE grade 3, patients", "result": 1}, {"measurement": "γ-glutamyltransferase increased, CTCAE grade 4, patients", "result": 0}, {"measurement": "γ-glutamyltransferase increased, patients with events, %", "result": 9, "unit": "%"}, {"measurement": "Alanine aminotransferase increased, CTCAE grade 1, patients", "setting": "21 days", "result": 1}, {"measurement": "Alanine aminotransferase increased, CTCAE grade 2, patients", "setting": "21 days", "result": 2}, {"measurement": "Alanine aminotransferase increased, CTCAE grade 3, patients", "setting": "21 days", "result": 0}, {"measurement": "Alanine aminotransferase increased, CTCAE grade 4, patients", "setting": "21 days", "result": 0}, {"measurement": "Alanine aminotransferase increased, patients with events, %", "setting": "21 days", "result": 14, "unit": "%"}, {"measurement": "Alopecia, CTCAE grade 2, patients", "setting": "21 days", "result": 8}, {"measurement": "Alopecia, CTCAE grade 3, patients", "setting": "21 days", "result": 0}, {"measurement": "Alopecia, CTCAE grade 4, patients", "setting": "21 days", "result": 0}, {"measurement": "Alopecia, patients with events, %", "setting": "21 days", "result": 68, "unit": "%"}, {"measurement": "Anorexia, CTCAE grade 1, patients", "setting": "21 days", "result": 4}, {"measurement": "Anorexia, CTCAE grade 2, patients", "setting": "21 days", "result": 0}, {"measurement": "Anorexia, CTCAE grade 3, patients", "setting": "21 days", "result": 0}, {"measurement": "Anorexia, CTCAE grade 4, patients", "setting": "21 days", "result": 0}, {"measurement": "Anorexia, patients with events, %", "setting": "21 days", "result": 18, "unit": "%"}, {"measurement": "Arthralgia, CTCAE grade 1, patients", "setting": "21 days", "result": 5}, {"measurement": "Arthralgia, CTCAE grade 2, patients", "setting": "21 days", "result": 0}, {"measurement": "Arthralgia, CTCAE grade 3, patients", "setting": "21 days", "result": 0}, {"measurement": "Arthralgia, CTCAE grade 4, patients", "setting": "21 days", "result": 0}, {"measurement": "Arthralgia, patients with events, %", "setting": "21 days", "result": 23, "unit": "%"}, {"measurement": "Back pain, CTCAE grade 1, patients", "setting": "21 days", "result": 2}, {"measurement": "Back pain, CTCAE grade 2, patients", "setting": "21 days", "result": 0}, {"measurement": "Back pain, CTCAE grade 3, patients", "setting": "21 days", "result": 0}, {"measurement": "Back pain, CTCAE grade 4, patients", "setting": "21 days", "result": 0}, {"measurement": "Back pain, patients with events, %", "setting": "21 days", "result": 9, "unit": "%"}, {"measurement": "Blood bilirubin, CTCAE grade 1, patients", "setting": "21 days", "result": 0}, {"measurement": "Blood bilirubin, CTCAE grade 2, patients", "setting": "21 days", "result": 0}, {"measurement": "Blood bilirubin, CTCAE grade 3, patients", "setting": "21 days", "result": 0}, {"measurement": "Blood bilirubin, CTCAE grade 4, patients", "setting": "21 days", "result": 0}, {"measurement": "Blood bilirubin, patients with events, %", "setting": "21 days", "result": 0, "unit": "%"}, {"measurement": "Bronchitis, CTCAE grade 1, patients", "setting": "21 days", "result": 0}, {"measurement": "Bronchitis, CTCAE grade 2, patients", "setting": "21 days", "result": 0}, {"measurement": "Bronchitis, CTCAE grade 3, patients", "setting": "21 days", "result": 0}, {"measurement": "Bronchitis, CTCAE grade 4, patients", "setting": "21 days", "result": 0}, {"measurement": "Bronchitis, patients with events, %", "setting": "21 days", "result": 0, "unit": "%"}, {"measurement": "Constipation, CTCAE grade 1, patients", "setting": "21 days", "result": 3}, {"measurement": "Constipation, CTCAE grade 2, patients", "setting": "21 days", "result": 1}, {"measurement": "Constipation, CTCAE grade 3, patients", "setting": "21 days", "result": 0}, {"measurement": "Constipation, CTCAE grade 4, patients", "setting": "21 days", "result": 0}, {"measurement": "Constipation, patients with events, %", "setting": "21 days", "result": 18, "unit": "%"}, {"measurement": "Cough, CTCAE grade 1, patients", "setting": "21 days", "result": 5}, {"measurement": "Cough, CTCAE grade 2, patients", "setting": "21 days", "result": 0}, {"measurement": "Cough, CTCAE grade 3, patients", "setting": "21 days", "result": 0}, {"measurement": "Cough, CTCAE grade 4, patients", "setting": "21 days", "result": 0}, {"measurement": "Cough, patients with events, %", "setting": "21 days", "result": 23, "unit": "%"}, {"measurement": "Cystitis, CTCAE grade 1, patients", "setting": "21 days", "result": 0}, {"measurement": "Cystitis, CTCAE grade 2, patients", "setting": "21 days", "result": 0}, {"measurement": "Cystitis, CTCAE grade 3, patients", "setting": "21 days", "result": 0}, {"measurement": "Cystitis, CTCAE grade 4, patients", "setting": "21 days", "result": 0}, {"measurement": "Cystitis, patients with events, %", "setting": "21 days", "result": 0, "unit": "%"}, {"measurement": "Dehydration, CTCAE grade 1, patients", "setting": "21 days", "result": 0}, {"measurement": "Dehydration, CTCAE grade 2, patients", "setting": "21 days", "result": 0}, {"measurement": "Dehydration, CTCAE grade 3, patients", "setting": "21 days", "result": 1}, {"measurement": "Dehydration, CTCAE grade 4, patients", "setting": "21 days", "result": 0}, {"measurement": "Dehydration, patients with events, %", "setting": "21 days", "result": 5, "unit": "%"}, {"measurement": "Diabetes mellitus, CTCAE grade 1, patients", "setting": "21 days", "result": 0}, {"measurement": "Diabetes mellitus, CTCAE grade 2, patients", "setting": "21 days", "result": 0}, {"measurement": "Diabetes mellitus, CTCAE grade 3, patients", "setting": "21 days", "result": 1}, {"measurement": "Diabetes mellitus, CTCAE grade 4, patients", "setting": "21 days", "result": 0}, {"measurement": "Diabetes mellitus, patients with events, %", "setting": "21 days", "result": 5, "unit": "%"}, {"measurement": "Diarrhoea, CTCAE grade 1, patients", "setting": "21 days", "result": 2}, {"measurement": "Diarrhoea, CTCAE grade 2, patients", "setting": "21 days", "result": 0}, {"measurement": "Diarrhoea, CTCAE grade 3, patients", "setting": "21 days", "result": 0}, {"measurement": "Diarrhoea, CTCAE grade 4, patients", "setting": "21 days", "result": 0}, {"measurement": "Diarrhoea, patients with events, %", "setting": "21 days", "result": 9, "unit": "%"}, {"measurement": "Dizziness, CTCAE grade 1, patients", "setting": "21 days", "result": 4}, {"measurement": "Dizziness, CTCAE grade 2, patients", "setting": "21 days", "result": 1}, {"measurement": "Dizziness, CTCAE grade 3, patients", "setting": "21 days", "result": 0}, {"measurement": "Dizziness, CTCAE grade 4, patients", "setting": "21 days", "result": 0}, {"measurement": "Dizziness, patients with events, %", "setting": "21 days", "result": 23, "unit": "%"}, {"measurement": "Drug hypersensitivity, CTCAE grade 1, patients", "setting": "21 days", "result": 0}, {"measurement": "Drug hypersensitivity, CTCAE grade 2, patients", "setting": "21 days", "result": 0}, {"measurement": "Drug hypersensitivity, CTCAE grade 3, patients", "setting": "21 days", "result": 0}, {"measurement": "Drug hypersensitivity, CTCAE grade 4, patients", "setting": "21 days", "result": 0}, {"measurement": "Drug hypersensitivity, patients with events, %", "setting": "21 days", "result": 0, "unit": "%"}, {"measurement": "Dry skin, CTCAE grade 1, patients", "setting": "21 days", "result": 0}, {"measurement": "Dry skin, CTCAE grade 2, patients", "setting": "21 days", "result": 0}, {"measurement": "Dry skin, CTCAE grade 3, patients", "setting": "21 days", "result": 1}, {"measurement": "Dry skin, CTCAE grade 4, patients", "setting": "21 days", "result": 0}, {"measurement": "Dry skin, patients with events, %", "setting": "21 days", "result": 5, "unit": "%"}]}]}
